Here are results for 17 molecules from patent US20250230165A1, “HETEROCYCLIC COMPOUNDS FOR USE IN THE TREATMENT OF CANCER” (ARTIOS PHARMA LIMITED, priority 2021, published 2025).

The target of this experiment is T1, Human Polθ polymerase domain (aa1820-2590) (Homo sapiens, UniProt O75417).
T1 construct: Human Polθ polymerase domain (aa1820-2590) was expressed in E. coli; made in house; host or cells: E. coli
T1 sequence (O75417 1820-2590): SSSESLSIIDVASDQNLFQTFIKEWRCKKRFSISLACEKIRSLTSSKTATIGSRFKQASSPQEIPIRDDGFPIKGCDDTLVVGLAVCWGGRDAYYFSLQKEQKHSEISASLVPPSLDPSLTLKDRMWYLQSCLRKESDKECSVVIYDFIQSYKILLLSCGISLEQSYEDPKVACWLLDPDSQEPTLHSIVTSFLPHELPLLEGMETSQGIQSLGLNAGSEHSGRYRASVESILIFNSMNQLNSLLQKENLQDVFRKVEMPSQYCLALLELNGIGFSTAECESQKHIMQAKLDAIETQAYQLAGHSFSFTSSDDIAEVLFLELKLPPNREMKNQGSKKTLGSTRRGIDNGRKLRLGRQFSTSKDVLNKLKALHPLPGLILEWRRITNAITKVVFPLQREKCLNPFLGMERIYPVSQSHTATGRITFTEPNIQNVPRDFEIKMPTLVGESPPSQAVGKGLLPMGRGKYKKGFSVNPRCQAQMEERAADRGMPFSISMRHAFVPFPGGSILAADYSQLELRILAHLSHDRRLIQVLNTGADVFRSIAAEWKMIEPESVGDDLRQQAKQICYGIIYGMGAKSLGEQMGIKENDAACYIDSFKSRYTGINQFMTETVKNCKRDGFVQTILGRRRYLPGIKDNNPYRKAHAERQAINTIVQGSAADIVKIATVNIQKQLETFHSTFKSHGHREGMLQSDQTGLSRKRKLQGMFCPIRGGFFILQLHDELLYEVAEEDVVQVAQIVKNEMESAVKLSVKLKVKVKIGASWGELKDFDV
Description: Polθ Polymerase Domain Kinact/KI Assay (PicoGreen). The class given is biochemical. As to conditions: 0.8 nM Polθ, 100 nM DNA substrate, kobs vs [I] fit for 2-step covalent inhibitor. The essentials: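 Enzyme 0.8 nM, annealed DNA substrate 100 nM, […]; 25 mM Tris pH 7.5, 5% glycerol, 0.01% Triton X-100, 0.1 mg/ml BSA, 1 mM DTT, 1% DMSO. Quench with EDTA at timepoints to 60 min; PicoGreen read. kobs from time courses → Kinact/KI.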

As for `C=CC(=O)N1CC(n2cnc(CN3C[C@H]4CC(=O)N(c5cc(C(F)(F)F)cc(C)n5)[C@@H]4C(=O)N(C)c4cccc(F)c43)n2)C1` [Example 123, (3aR,11aS)-5-((1-(1-acryloylazetidin-3-yl)-1H-1,2,4-triazol-3-yl)methyl)-6-fluoro-10-methyl-1-(6-methyl-4-(trifluoromethyl)pyridin-2-yl)-1,3a,4,5,10,11a-hexahydro-2H-benzo[b]pyrrolo[2,3-f][1,4]diazocine-2,11(3H)-dione], the Kinact/Kl was found to be 0.27 µM⁻¹ s⁻¹.
`C=CC(=O)N1CC2(CN(CCN3C[C@H]4CC(=O)N(c5cc(C(F)(F)F)cc(C)n5)[C@@H]4C(=O)N(C)c4cccc(C)c43)CCN2)C1` [Example 114, (3aR,11aS)-5-(2-(2-acryloyl-2,5,8-triazaspiro[3.5]nonan-8-yl)ethyl)-6,10-dimethyl-1-(6-methyl-4-(trifluoromethyl)pyridin-2-yl)-1,3a,4,5,10,11a-hexahydro-2H-benzo[b]pyrrolo[2,3-f][1,4]diazocine-2,11(3H)-dione] came in with a Kinact/Kl of 0.58 µM⁻¹ s⁻¹.
As for `C=CC(=O)N1Cc2ncc(CN3C[C@H]4CC(=O)N(c5cc(C(F)(F)F)cc(C)n5)[C@@H]4C(=O)N(C)c4cccc(Cl)c43)nc2C1` [Example 229, (3aR,11aS)-5-((6-acryloyl-6,7-dihydro-5H-pyrrolo[3,4-b]pyrazin-2-yl)methyl)-6-chloro-10-methyl-1-(6-methyl-4-(trifluoromethyl)pyridin-2-yl)-1,3a,4,5,10,11a-hexahydro-2H-benzo[b]pyrrolo[2,3-f][1,4]diazocine-2,11(3H)-dione], the figure is 0.73 µM⁻¹ s⁻¹.
The figure for `C=CC(=O)N1CC(N(C)CCCN2C[C@H]3CC(=O)N(c4cc(C(F)(F)F)cc(C)n4)[C@@H]3C(=O)N(C)c3cccc(F)c32)C1` [Example 71, (3aR,11aS)-5-(3-((1-acryloylazetidin-3-yl)(methyl)amino)propyl)-6-fluoro-10-methyl-1-(6-methyl-4-(trifluoromethyl)pyridin-2-yl)-1,3a,4,5,10,11a-hexahydro-2H-benzo[b]pyrrolo[2,3-f][1,4]diazocine-2,11(3H)-dione] is 0.42 µM⁻¹ s⁻¹; for `C=CC(=O)N1CCN(c2nc(CN3C[C@H]4CC(=O)N(c5cc(C(F)(F)F)cc(C)n5)[C@@H]4C(=O)N(C)c4cccc(F)c43)c[nH]2)CC1` [Example 125, (3aR,11aS)-5-((2-(4-acryloylpiperazin-1-yl)-1H-imidazol-4-yl)methyl)-6-fluoro-10-methyl-1-(6-methyl-4-(trifluoromethyl)pyridin-2-yl)-1,3a,4,5,10,11a-hexahydro-2H-benzo[b]pyrrolo[2,3-f][1,4]diazocine-2,11(3H)-dione] it is 2.53 µM⁻¹ s⁻¹; for `C=CC(=O)N1Cc2cc(CN3C[C@H]4CC(=O)N(c5cc(C(F)(F)F)cc(C)n5)[C@@H]4C(=O)N(C)c4cccc(C)c43)cnc2[C@@H]1CC#N` (racemic) [Example 321a, 2-((S/R)-6-acryloyl-3-(((3aR,11aS)-6,10-dimethyl-1-(6-meth-yl-4-(trifluorometh-yl)pyridin-2-yl)-2,11-dioxo-1,2,3,3a, 4,10,11,11a-octa-hydro-5H-benzo[b]pyrrolo[2,3-f][1,4]diazocin-5-yl)meth-yl)-6,7-dihydro-5H-pyrrolo[3,4-b]pyr-idin-7-yl)acetonitrile] it is 1.57 µM⁻¹ s⁻¹.
As for `C=CC(=O)N1CCN(CCCN2C[C@H]3CC(=O)N(c4cc(C(F)(F)F)cc(C)n4)[C@@H]3C(=O)N(C)c3cccc(Cl)c32)CC1` [Example 266, (3aR,11aS)-5-(3-(4-acryloylpiperazin-1-yl)propyl)-6-chloro-10-methyl-1-(6-methyl-4-(trifluoromethyl)pyridin-2-yl)-1,3a,4,5,10,11a-hexahydro-2H-benzo[b]pyrrolo[2,3-f][1,4]diazocine-2,11(3H)-dione], the figure is 0.59 µM⁻¹ s⁻¹; as for `C=CC(=O)N1CC(N2CC[C@@H](CN3C[C@H]4CC(=O)N(c5cc(C(F)(F)F)cc(C)n5)[C@@H]4C(=O)N(C)c4cccc(F)c43)C2)C1` [Example 214, (3aR,11aS)-5-(((R)-1-(1-acryloylazetidin-3-yl)pyrrolidin-3-yl)methyl)-6-fluoro-10-methyl-1-(6-methyl-4-(trifluoromethyl)pyridin-2-yl)-1,3a,4,5,10,11a-hexahydro-2H-benzo[b]pyrrolo [2,3-f][1,4] diazocine-2,11 (3H)-dione], 0.32 µM⁻¹ s⁻¹.
As for `C=C(CN(C)C)C(=O)N1CCC(CCCN2C[C@H]3CC(=O)N(c4cc(C(F)(F)F)cc(C)n4)[C@@H]3C(=O)N(C)c3cccc(Cl)c32)CC1` [Example 158, (3aR,11aS)-6-chloro-5-(3-(1-(2-((dimethylamino)methyl)acryloyl)piperidin-4-yl)propyl)-10-methyl-1-(6-methyl-4-(trifluoromethyl)pyridin-2-yl)-1,3a,4,5,10,11a-hexahydro-2H-benzo[b]pyrrolo[2,3-f][1,4]diazocine-2,11(3H)-dione], the Kinact/Kl is 3.72 µM⁻¹ s⁻¹.
Molecule `C=CC(=O)N1CC(Oc2cccc(N3C[C@H]4CC(=O)N(c5cc(C(F)(F)F)cc(C)n5)[C@@H]4C(=O)N(C)c4cccc(F)c43)n2)C1` [Example 57, (3aR,11aS)-5-(6-((1-acryloylazetidin-3-yl)oxy)pyridin-2-yl)-6-fluoro-10-methyl-1-(6-methyl-4-(trifluoromethyl)pyridin-2-yl)-1,3a,4,5,10,11a-hexahydro-2H-benzo[b]pyrrolo[2,3-f][1,4]diazocine-2,11(3H)-dione] showed a Kinact/Kl of 0.034 µM⁻¹ s⁻¹.
As for `C=CC(=O)Nc1ccc(CN2C[C@H]3CC(=O)N(c4cc(C(F)(F)F)cc(C)n4)[C@@H]3C(=O)N(C)c3cccc(C)c32)cc1` [Example 87, N-(4-(((3aR,11aS)-6,10-dimethyl-1-(6-methyl-4-(trifluoromethyl)pyridin-2-yl)-2,11-dioxo-1,2,3,3a,4,10,11,11a-octahydro-5H-benzo[b]pyrrolo[2,3-f][1,4]diazocin-5-yl)methyl)phenyl)acrylamide], the figure is 0.81 µM⁻¹ s⁻¹; as for `C=CC(=O)N1Cc2cc(CN3C[C@H]4CC(=O)N(c5cc(C(F)(F)F)cc(C)n5)[C@@H]4C(=O)N(C)c4cccc(Cl)c43)nn2C[C@@H]1C` (racemic) [Example 294b, (3aR,11aS)-5-(((S/R)-5-acryloyl-6-methyl-4,5,6,7-tetrahydropyrazolo[1,5-a]pyrazin-2-yl)methyl)-6-chloro-10-methyl-1-(6-methyl-4-(trifluoromethyl)pyridin-2-yl)-1,3a,4,5,10,11a-hexahydro-2H-benzo[b]pyrrolo[2,3-f][1,4]diazocine-2,11(3H)-dione], 2.48 µM⁻¹ s⁻¹; as for `C=CC(=O)N1CC(c2nc(CN3C[C@H]4CC(=O)N(c5cc(C(F)(F)F)cc(C)n5)[C@@H]4C(=O)N(C)c4cccc(F)c43)n(C)n2)C1` [Example 99, (3aR,11aS)-5-((3-(1-acryloylazetidin-3-yl)-1-methyl-1H-1,2,4-triazol-5-yl)methyl)-6-fluoro-10-methyl-1-(6-methyl-4-(trifluoromethyl)pyridin-2-yl)-1,3a,4,5,10,11a-hexahydro-2H-benzo[b]pyrrolo[2,3-f][1,4]diazocine-2,11(3H)-dione], 0.17 µM⁻¹ s⁻¹.
As for `C=CC(=O)N1C[C@@H]2CN(CCN3C[C@H]4CC(=O)N(c5cc(C(F)(F)F)cc(C)n5)[C@@H]4C(=O)N(C)c4cccc(F)c43)CCN2C(=O)[C@H]1C` (single isomer, unassigned) [Example 60], the Kinact/Kl is 0.30 µM⁻¹ s⁻¹.
The figure for `C=CC(=O)N1CC(N2CCO[C@H]3CN(CCN4C[C@H]5CC(=O)N(c6cc(C(F)(F)F)cc(C)n6)[C@@H]5C(=O)N(C)c5cccc(F)c54)C[C@@H]32)C1` (single isomer, unassigned) [Example 22a] is 0.17 µM⁻¹ s⁻¹; for `C=CC(=O)N1CCc2c(ncn2CCN2C[C@H]3CC(=O)N(c4cc(C(F)(F)F)cc(C)n4)[C@@H]3C(=O)N(C)c3cccc(F)c32)C1` [Example 49, (3aR,11aS)-5-(2-(5-acryloyl-4,5,6,7-tetrahydro-1H-imidazo[4,5-c]pyridin-1-yl)ethyl)-6-fluoro-10-methyl-1-(6-methyl-4-(trifluoromethyl)pyridin-2-yl)-1,3a,4,5,10,11a-hexahydro-2H-benzo[b]pyrrolo[2,3-f][1,4]diazocine-2,11(3H)-dione] it is 0.34 µM⁻¹ s⁻¹.
As for `C=CC(=O)N1CCN2C(=O)[C@H](C)N(CCN3C[C@H]4CC(=O)N(c5cc(C(F)(F)F)cc(C)n5)[C@@H]4C(=O)N(C)c4cccc(F)c43)C[C@@H]2C1` (single isomer, unassigned) [Example 108], the figure is 2.35 µM⁻¹ s⁻¹.
